Entries after “also recorded” stand apart in the source; their conditions may differ. Residues, ends and D or L forms follow the SMILES beside them. No end group written: not given here.
Assays:
SNL pain model = assay: SNL pain model, Von Frey test; settings: 2 mg/kg I.P.; one, three and seven hours after administration; FIG. 7
CCI pain model = assay: CCI pain model, Von Frey test; settings: amount printed 1 mg/ml (0.1 mg/mL, 200 μL I.P.); two hours after administration; FIG. 6
hTRPV1 = target: T1, hTRPV1 (Homo sapiens, UniProt Q8NER1); assay: Calcium imaging (Fura-2AM) of capsaicin-induced Ca2+ influx in TRPV1 CHO-K1 cells; format: cell-based; settings: for TRPV1 inhibitory activity / inhibition rate (screening): screening of peptides; for inhibition at 0.001 µM: peptide at 1 nM; for inhibition at 0.005 µM: peptide at 5 nM; for inhibition at 0.1 µM: peptide at 100 nM; for influx of calcium into TRPV1 channel (ΔF/F): FIG. 1, peptide injected
T1 construct: expressed in transfected cells; the earlier reading calls it TRPV1 CHO-K1 cells
T1 sequence (Q8NER1 whole entry): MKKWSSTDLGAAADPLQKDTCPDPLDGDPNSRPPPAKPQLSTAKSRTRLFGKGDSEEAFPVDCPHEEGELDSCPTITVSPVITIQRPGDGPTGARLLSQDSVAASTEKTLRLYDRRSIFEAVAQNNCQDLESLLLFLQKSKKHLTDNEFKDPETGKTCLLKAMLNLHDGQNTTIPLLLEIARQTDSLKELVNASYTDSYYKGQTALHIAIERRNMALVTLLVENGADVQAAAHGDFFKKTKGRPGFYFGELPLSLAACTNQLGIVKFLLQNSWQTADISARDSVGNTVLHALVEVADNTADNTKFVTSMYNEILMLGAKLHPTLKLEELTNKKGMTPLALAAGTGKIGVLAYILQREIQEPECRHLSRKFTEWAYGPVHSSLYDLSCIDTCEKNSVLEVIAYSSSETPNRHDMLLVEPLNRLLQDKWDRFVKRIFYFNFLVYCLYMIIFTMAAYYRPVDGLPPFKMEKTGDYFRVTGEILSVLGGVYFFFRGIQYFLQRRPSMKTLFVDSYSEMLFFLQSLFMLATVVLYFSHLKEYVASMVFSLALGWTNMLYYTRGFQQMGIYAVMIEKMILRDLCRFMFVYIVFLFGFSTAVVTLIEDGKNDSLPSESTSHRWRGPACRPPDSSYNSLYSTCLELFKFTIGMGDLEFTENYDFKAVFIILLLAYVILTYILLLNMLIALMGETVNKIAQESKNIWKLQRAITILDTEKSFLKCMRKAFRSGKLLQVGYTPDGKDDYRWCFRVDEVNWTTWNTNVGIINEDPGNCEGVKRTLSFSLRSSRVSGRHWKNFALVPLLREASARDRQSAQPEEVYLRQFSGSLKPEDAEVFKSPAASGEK
Method: The TRPV1 inhibitory effect of various short-length peptides, including the 49 peptides in Tables 5 and 6, was evaluated by the following method.
All reagents used in cell culture were sterilized products. The culture medium of the cell line is shown in Table 7 below, and the culture was performed in a cell incubator with under the culture conditions of […] and 37° C. In addition, when cryopreserved cells (stock) were thawed and used, they were subcultured two to three times before use in the test.
After removing the cell culture medium by suction, 10 ml DPBS was added to wash the cells, and then the DPBS was removed by suction. 2 ml 0.05% trypsin-EDTA was added, and then the cells were cultured in a cell incubator at 37° C. for three to five minutes. Through a microscope, detachment of the cells from the bottom surface of the culture dish was confirmed, and 8 ml of the cell culture medium including 10% FBS was added to inactivate the trypsin-EDTA. Cells in the culture dish were collected, pipetted, and transferred to a 15 ml tube.
Centrifugation was performed at 800 rpm for five minutes, and all the supernatant except the cell pellet was removed. Then, the cell culture medium was added, and the pellet was carefully loosened.
After measuring the number of cells with a hemocytometer, the cells were dispensed at 1×10^3 cells/10 μl/coverslip at the center of a 12 mm cover slip coated with poly-D-lysine.
A 35π petri dish containing the cover slip was stored in a cell incubator, and when the cells were attached to the cover slip after one to two hours, 2 ml of the cell culture medium was added and stored in the cell incubator again.
The sample was added to 200 ml distilled water (DW) and mixed according to the composition in Table 8 below.
The pH was adjusted to a range of 7.3 to 7.4 using 5 N NaOH, and then distilled water (DW) was added to adjust the final volume to 250 ml.
Capsaicin was dissolved in 100% ethanol to prepare a 10 mM stock. Capsaicin, a TRPV1 activating substance, was diluted in the extracellular solution to a concentration of 0.1-1 mM before using in the experiment.
The test material (peptide according to the present invention) was dissolved in a solvent and then diluted to an appropriate concentration in the extracellular solution before using in the experiment.
2 mM Fura-2AM was prepared by adding 24.95 ml of DMSO to 50 mg of Fura 2AM powder, which is used as a membrane-permeable fluorescent marker. After the experiment, the remaining Fura-2AM was stored at −20° C. for reuse and covered with silver foil to prevent exposure to light.
2 mM Fura-2AM was diluted 1/1000 in a cell culture medium without FBS and antibiotics to prepare 1 ml Fura-2AM (based on a 35π Petri dish) to a final concentration of […]. After removing the cell culture medium in the 35π Petri dish, the cells were washed once with 2 ml DPBS. 1 ml of the Fura-2AM solution prepared above was transferred to a 35π Petri dish, and the cells were cultured in a cell incubator for 40 min.
To operate calcium imaging equipment, an IRIS-9 camera was turned on and then a computer was powered on. To operate a perfusion system, a suction device was powered on, 20 to 30 ml of distilled water was added to each perfusion syringe, and suction was performed while allowing the distilled water to flow into the chamber (syringe wash).
The extracellular solution and test materials prepared in advance were placed in the syringes washed with distilled water, and smooth flow of the solutions from each syringe into the chamber was confirmed. At this time, clips were used to block all the lines except one syringe line to be checked. In other words, the flow of the solution through only a single syringe line without the clip was checked (When the solution flows through two or more lines, the solutions could have been mixed.).

CIPN pain model = assay: CIPN (paclitaxel) pain model, Von Frey test; format: in vivo, SD rat; settings: one, three and seven hours after administration, FIG. 8
Method: • a. […] Preparation of positive control material: Prebabalin was homogeneously dissolved in a saline solution at a concentration of 30 mg/10 mL and used. • e.
• a. […] Chemotherapy induced peripheral neuropathy (CIPN) pain modeling
Paclitaxel was dissolved at 2 mg/10 ml in a solution prepared by mixing cremophor EL and absolute ethanol at a 1:1 ratio, and the resulting solution was administered intraperitoneally in the amount of 2 ml each. Chemotherapy-induced pain was induced by administering paclitaxel once a day at 24-hour intervals for 4 days. • c. Confirmation of pain induction
Drug administration and confirmation of analgesic efficacy
Statistical analysis processing

pain caused by capsaicin = assay: Capsaicin test (pain behavioral response); format: in vivo, C57BL/6N mouse; settings: 0.5 mg/kg I.P. one hour before 0.01% capsaicin; 0 to 5 minutes; FIG. 5
Method: An in vivo test was performed with the peptides of SEQ ID NOS: 5, 6, 9, and 11.
• a. […] Preparation of positive control material: BCTC was homogeneously dissolved in a saline solution at a concentration of 3 mg/mL. • e.
• a. Preparation of test materials: The peptides of SEQ ID NOS: 5, 6, 9, and 11 were dissolved in a saline solution to prepare at a concentration of 0.05 mg/mL. • b.
• a. Saline solution, BCTC, and peptides of SEQ ID NOS: 5, 6, 9, and 11, the administered materials corresponding to each group, were administered in advance about one hour before capsaicin administration. • b. One hour after the test material administration to each group, 20 μL of 0.01% capsaicin was injected subcutaneously into the sole of the right foot. • c. After administering […] to each subject, the time at which pain behavioral responses (licking, biting, etc.) appeared was measured in the interval of 0 to 5 minutes. • d. Grooming in regions other than the region where capsaicin was administered was not counted. • e.
In a previous study, the pain inhibiting effect was confirmed through a formalin test. To confirm whether such pain inhibiting phenomenon is through TRPV1, the pain response pattern was investigated after subcutaneous injection of capsaicin, which is one of the TRPV1 activators.

pain caused by formalin = assay: Formalin test (pain behavioral response); format: in vivo, ICR mouse; settings: 2nd phase (20 to 40 minutes), vs saline group, FIG. 4
Method: An in vivo test was performed with the peptides of SEQ ID NOS: 11 and 12.
• a. […] Preparation of positive control material: Pregabalin was homogeneously dissolved in a saline solution at a concentration of 3 mg/mL. • e.
• a. Saline solution, pregabalin, peptide of SEQ ID NO: 11, and peptide of SEQ ID NO: 12, the administered materials corresponding to each group, were administered in advance about one hour before formalin administration. • b. One hour after the test material administration to each group, 20 μL of 2% formalin was injected subcutaneously into the sole of the right foot. • c. After administering […] to each subject, the time at which pain behavioral responses (licking, biting, etc.) appeared was measured in the intervals of 0 to 5 minutes and 20 to 40 minutes. • d. Grooming in regions other than the region where formalin was administered was not counted. • e.
The formalin test is a method of evaluating the degree of pain by subcutaneously injecting formalin into the dorsum of the hind paw of a mouse and then observing the behavior that appears thereafter. The degree of pain is evaluated by the number of times or duration of flinching responses. […]

[1] = CHO-K1, read-out: hTRPV1 activity inhibited compared to the control group

Compound: YGQCYMWMQKW [SEQ ID NO: 11]
- pain behavioral response threshold (Von Frey), after vs before administration (SNL pain model): the pain behavioral response threshold increased after the administration compared to before the administration
- pain behavioral response threshold (Von Frey), after vs before administration (CCI pain model): the pain behavioral response threshold increased after the administration compared to before the administration
- TRPV1 inhibitory activity / inhibition rate (screening) (hTRPV1): high inhibition rate of TRPV1
- pain behavioral response threshold (Von Frey), after vs before administration (CIPN pain model; 4 mg/kg I.P.): the pain behavioral response threshold increased after the administration compared to before the administration
- pain behavioral response (licking, biting) after capsaicin (pain caused by capsaicin): significant decrease of the pain behavioral response; also recorded: inhibited the pain caused by the peripheral and central sensitization
- pain behavioral response (licking, biting) after formalin (pain caused by formalin; 8 mg/kg I.P. one hour before 2% formalin): significant decrease of the pain behavioral response in the 2nd phase

Compound: C[C@H](NC(=O)[C@H](CCCCN)NC(=O)[C@@H](N)Cc1ccc(O)cc1)C(=O)N[C@@H](CC(N)=O)C(=O)N[C@@H](Cc1ccc(O)cc1)C(=O)N[C@@H](CS)C(=O)N[C@@H](CO)C(=O)NCC(=O)N[C@@H](CCC(N)=O)C(=O)N[C@@H](CS)C(=O)N[C@@H](Cc1ccc(O)cc1)C(=O)O [SEQ ID NO: 5, YKANYCSGQCY] (H-YKANYCSGQCY-OH; N-terminus and C-terminus assumed)
- inhibition at 0.001 µM (hTRPV1; [1]): ~20%
- inhibition at 0.005 µM (hTRPV1; [1]): 53%
- inhibition at 0.01 µM (hTRPV1; CHO-K1, peptide at 10 nM, read-out: hTRPV1 activity inhibited compared to the control group): 75%
- inhibition at 0.05 µM (hTRPV1; CHO-K1, peptide at 50 nM, read-out: hTRPV1 activity inhibited compared to the control group): 79%
- inhibition at 0.1 µM (hTRPV1; [1]): 77%
- inhibition at 0.5 µM (hTRPV1; CHO-K1, peptide at 500 nM, read-out: hTRPV1 activity inhibited compared to the control group): 95%
- influx of calcium into TRPV1 channel (ΔF/F) (hTRPV1): the influx of calcium was significantly reduced
- TRPV1 inhibitory activity / inhibition rate (screening) (hTRPV1): high inhibition rate of TRPV1
- pain behavioral response (licking, biting) after capsaicin (pain caused by capsaicin): significant decrease of the pain behavioral response; also recorded: inhibited the pain caused by the peripheral and central sensitization

Compound: SGQCYMFMQKY [SEQ ID NO: 6, SGQCYMFMQKY]
- inhibition at 0.0005 µM (hTRPV1; CHO-K1, peptide at 0.5 nM, read-out: hTRPV1 activity inhibited compared to the control group): ~9%
- inhibition at 0.001 µM (hTRPV1; [1]): 16%
- inhibition at 0.005 µM (hTRPV1; [1]): 51%
- inhibition at 0.1 µM (hTRPV1; [1]): 70%
- influx of calcium into TRPV1 channel (ΔF/F) (hTRPV1): the influx of calcium was significantly reduced
- TRPV1 inhibitory activity / inhibition rate (screening) (hTRPV1): high inhibition rate of TRPV1
- pain behavioral response (licking, biting) after capsaicin (pain caused by capsaicin): significant decrease of the pain behavioral response; also recorded: inhibited the pain caused by the peripheral and central sensitization

Compound: YGQCYMYMQKW [SEQ ID NO: 12]
- pain behavioral response threshold (Von Frey), after vs before administration (SNL pain model): the pain behavioral response threshold increased after the administration compared to before the administration
- pain behavioral response threshold (Von Frey), after vs before administration (CCI pain model): the pain behavioral response threshold increased after the administration compared to before the administration
- TRPV1 inhibitory activity / inhibition rate (screening) (hTRPV1): high inhibition rate of TRPV1
- pain behavioral response threshold (Von Frey), after vs before administration (CIPN pain model; 2 mg/kg I.P.): the pain behavioral response threshold increased after the administration compared to before the administration
- pain behavioral response (licking, biting) after formalin (pain caused by formalin; 4 mg/kg I.P. one hour before 2% formalin): significant decrease of the pain behavioral response in the 2nd phase

Compound: AGQCYMFMQKY [SEQ ID NO: 9]
- TRPV1 inhibitory activity / inhibition rate (screening) (hTRPV1): high inhibition rate of TRPV1
- pain behavioral response (licking, biting) after capsaicin (pain caused by capsaicin): inhibited the pain caused by the peripheral and central sensitization

— patent US20250002532A1, “A NOVEL PEPTIDE AND THE USE THEREOF” (Rudacure Corporation, priority 2023, published 2025)
